In patent publication US9695155B2, “Herbicidal substituted pyrimidinyloxy benzene compounds” (E. I. DU PONT DE NEMOURS AND COMPANY, priority 2013, dated 2017):

Key:
barnyardgrass [1] = assay: Test A preemergence; type: in vivo, Echinochloa crus-galli
In short: (§1)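 Visual injury scored 0–100 (100 = complete control) against untreated controls about 10 days after treatment in a greenhouse. Test chemicals, formulated with surfactant in non-phytotoxic solvent, were sprayed on soil preemergence or on 2-10 cm, one- to two-leaf plants postemergence.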

large (Lg) crabgrass [2] = assay: Test A preemergence; type: in vivo, Digitaria sanguinalis
In short: as §1

giant foxtail [3] = assay: Test A preemergence; type: in vivo, Setaria faberii
In short: as §1

morningglory [4] = assay: Test A preemergence; type: in vivo, Ipomoea spp.
In short: as §1

pigweed [5] = assay: Test A preemergence; type: in vivo, Amaranthus retroflexus
In short: as §1

velvetleaf [6] = assay: Test A preemergence; type: in vivo, Abutilon theophrasti
In short: as §1

wheat [7] = assay: Test A preemergence; type: in vivo, Triticum aestivum
In short: as §1

corn [8] = assay: Test A preemergence; type: in vivo, Zea mays
In short: as §1

barnyardgrass [9] = assay: Test A postemergence; type: in vivo, Echinochloa crus-galli
In short: as §1

large (Lg) crabgrass [10] = assay: Test A postemergence; type: in vivo, Digitaria sanguinalis
In short: as §1

giant foxtail [11] = assay: Test A postemergence; type: in vivo, Setaria faberii
In short: as §1

morningglory [12] = assay: Test A postemergence; type: in vivo, Ipomoea spp.
In short: as §1

pigweed [13] = assay: Test A postemergence; type: in vivo, Amaranthus retroflexus
In short: as §1

velvetleaf [14] = assay: Test A postemergence; type: in vivo, Abutilon theophrasti
In short: as §1

wheat [15] = assay: Test A postemergence; type: in vivo, Triticum aestivum
In short: as §1

corn [16] = assay: Test A postemergence; type: in vivo, Zea mays
In short: as §1

rice = assay: Test B flooded paddy test; type: in vivo, Oryza sativa; conditions: Flood, 250 g ai/ha; 0 to 100 scale where 0 is no effect and 100 is complete control
In short: (§2)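 Greenhouse flooded-pot test: compounds dosed into 3 cm standing water over 2-leaf plants, flood held constant. Rated visually after 13–15 days on 0–100 (complete control = 100); a dash marks no test result.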

sedge, umbrella = assay: Test B flooded paddy test; type: in vivo, Cyperus difformis; conditions: Flood, 250 g ai/ha; 0 to 100 scale where 0 is no effect and 100 is complete control
In short: as §2

Heteranthera limosa = assay: Test B flooded paddy test; type: in vivo; conditions: Flood, 250 g ai/ha; 0 to 100 scale where 0 is no effect and 100 is complete control
In short: as §2

barnyardgrass [17] = assay: Test B flooded paddy test; type: in vivo, Echinochloa crus-galli; conditions: Flood, 250 g ai/ha; 0 to 100 scale where 0 is no effect and 100 is complete control
In short: as §2

[18] = 500 g ai/ha, 0 to 100 scale where 0 is no effect and 100 is complete control
[19] = 125 g ai/ha, 0 to 100 scale where 0 is no effect and 100 is complete control
[20] = 500 g ai/ha, 0 to 100 scale, 0 no effect, 100 complete control, approx. 10 days
[21] = 500 g ai/ha, 0 to 100 scale, 0 no effect, 100 complete control

Compound: COc1cnc(Oc2cccc(C#N)c2-n2cc(Br)cn2)nc1 [Compound 218]
- Barnyardgrass plant response rating (0 to 100 scale, 0 is no effect, 100 is complete control) (barnyardgrass [1]; 125 g ai/ha): 10
- Barnyardgrass plant response rating (barnyardgrass [1]; [18]): 70
- Crabgrass, Large plant response rating (0 to 100 scale) (large (Lg) crabgrass [2]; 125 g ai/ha): 80
- Crabgrass, Large plant response rating (large (Lg) crabgrass [2]; [18]): 100
- Foxtail, Giant plant response rating (0 to 100 scale) (giant foxtail [3]; 125 g ai/ha): 20
- Foxtail, Giant plant response rating (giant foxtail [3]; [18]): 100
- Morningglory plant response rating (0 to 100 scale) (morningglory [4]; 125 g ai/ha): 0
- Morningglory plant response rating (morningglory [4]; [18]): 10
- Pigweed plant response rating (0 to 100 scale) (pigweed [5]; 125 g ai/ha): 100
- Pigweed plant response rating (pigweed [5]; [18]): 100
- Velvetleaf plant response rating (0 to 100 scale) (velvetleaf [6]; 125 g ai/ha): 10
- Velvetleaf plant response rating (velvetleaf [6]; [18]): 50
- Wheat plant response rating (0 to 100 scale) (wheat [7]; 125 g ai/ha): 0
- Wheat plant response rating (wheat [7]; [18]): 0
- Corn plant response rating (0 to 100 scale) (corn [8]; 125 g ai/ha): 0
- Corn plant response rating (corn [8]; [18]): 0
- Barnyardgrass plant response rating (barnyardgrass [9]; [19]): 30
- Plant response rating, Barnyardgrass (barnyardgrass [9]; [18]): 70
- Crabgrass, Large plant response rating (large (Lg) crabgrass [10]; [19]): 50
- Plant response rating, Crabgrass, Large (large (Lg) crabgrass [10]; [18]): 70
- Foxtail, Giant plant response rating (giant foxtail [11]; [19]): 20
- Plant response rating, Foxtail, Giant (giant foxtail [11]; [18]): 70
- Morningglory plant response rating (morningglory [12]; [19]): 70
- Plant response rating, Morningglory (morningglory [12]; [18]): 90
- Pigweed plant response rating (pigweed [13]; [19]): 90
- Plant response rating, Pigweed (pigweed [13]; [18]): 100
- Velvetleaf plant response rating (velvetleaf [14]; [19]): 30
- Plant response rating, Velvetleaf (velvetleaf [14]; [18]): 100
- Wheat plant response rating (wheat [15]; [19]): 0
- Plant response rating, Wheat (wheat [15]; [18]): 20
- Corn plant response rating (corn [16]; [19]): 0
- Plant response rating, Corn (corn [16]; [18]): 40
- Plant response rating, Rice (rice): 0
- Plant response rating, Sedge, Umbrella (sedge, umbrella): 40
- Plant response rating, Ducksalad (Heteranthera limosa): 50
- Plant response rating, Barnyardgrass (barnyardgrass [17]): 0

Compound: Fc1cnc(Oc2ccccc2-n2cc(Cl)cn2)nc1 [Compound 11]
- Barnyardgrass plant response rating (barnyardgrass [1]; [19]): 70
- Barnyardgrass plant response rating (barnyardgrass [1]; [20]): 100
- Crabgrass, Large plant response rating (large (Lg) crabgrass [2]; [19]): 90
- Crabgrass, Large plant response rating (large (Lg) crabgrass [2]; [20]): 100
- Foxtail, Giant plant response rating (giant foxtail [3]; [19]): 90
- Foxtail, Giant plant response rating (giant foxtail [3]; [20]): 100
- Morningglory plant response rating (morningglory [4]; [19]): 30
- Morningglory plant response rating (morningglory [4]; [20]): 60
- Pigweed plant response rating (pigweed [5]; [19]): 90
- Pigweed plant response rating (pigweed [5]; [20]): 100
- Velvetleaf plant response rating (velvetleaf [6]; [19]): 90
- Velvetleaf plant response rating (velvetleaf [6]; [20]): 100
- Wheat plant response rating (wheat [7]; [19]): 0
- Wheat plant response rating (wheat [7]; [20]): 0
- Corn plant response rating (corn [8]; [19]): 0
- Corn plant response rating (corn [8]; [20]): 30
- Plant response rating, Barnyardgrass (barnyardgrass [9]; [19]): 10
- Plant response rating, Barnyardgrass (barnyardgrass [9]; [21]): 90
- Plant response rating, Crabgrass, Large (large (Lg) crabgrass [10]; [19]): 70
- Plant response rating, Crabgrass, Large (large (Lg) crabgrass [10]; [21]): 90
- Plant response rating, Foxtail, Giant (giant foxtail [11]; [19]): 70
- Plant response rating, Foxtail, Giant (giant foxtail [11]; [21]): 90
- Plant response rating, Morningglory (morningglory [12]; [19]): 60
- Plant response rating, Morningglory (morningglory [12]; [21]): 100
- Plant response rating, Pigweed (pigweed [13]; [19]): 100
- Plant response rating, Pigweed (pigweed [13]; [21]): 100
- Plant response rating, Velvetleaf (velvetleaf [14]; [19]): 100
- Plant response rating, Velvetleaf (velvetleaf [14]; [21]): 100
- Plant response rating, Wheat (wheat [15]; [19]): 0
- Plant response rating, Wheat (wheat [15]; [21]): 20
- Plant response rating, Corn (corn [16]; [19]): 10
- Plant response rating, Corn (corn [16]; [21]): 50
- Plant response rating, Rice (rice): 0
- Plant response rating, Sedge, Umbrella (sedge, umbrella): 0
- Plant response rating, Ducksalad (Heteranthera limosa): 50
- Plant response rating, Barnyardgrass (barnyardgrass [17]): 0
